Assay results: patent US20230211001A1, “Lysosomal Targeting Molecules Comprising Knottin Peptides And Related Compositions And Methods” (The Board of Trustees of the Leland Stanford Junior …, priority 2020, published 2023)
Non-standard residues stand in square brackets, D forms with d. Primed or numbered codes have the meaning given here. No end group written: not given here. Orn(N3)′ = its azide, alkyne or alkene has reacted where a group follows in round brackets; Orn(N3) = [N-]=[N+]=NCCC[C@H](N)C(=O)O; tri‑GalNAc‑DBCO = not defined here

How the values were obtained:
[1] = molecular target: integrins that bind to PIP (total surface level on HEPG2 cells); assay: cell-based or functional assay
[2] = tested on: cation independent M6PR (CIM6PR); settings: compared to mannose-6-phosphate glycans; cited from earlier work
[3] = compared to mannose-6-phosphate glycans; cited from earlier work
integrin αvβ5 = molecular target: T1, integrin αvβ5 (Homo sapiens, UniProt P06756+P18084); assay: Cell surface integrin levels by live-cell flow cytometry in HEPG2 cells, anti-αvβ5 detection; assay type: cell-based; settings: 44 h, 100 nM
T1 construct: endogenous in cells; host or cells: HEPG2
T1 sequence (P06756 31-889 limits assumed): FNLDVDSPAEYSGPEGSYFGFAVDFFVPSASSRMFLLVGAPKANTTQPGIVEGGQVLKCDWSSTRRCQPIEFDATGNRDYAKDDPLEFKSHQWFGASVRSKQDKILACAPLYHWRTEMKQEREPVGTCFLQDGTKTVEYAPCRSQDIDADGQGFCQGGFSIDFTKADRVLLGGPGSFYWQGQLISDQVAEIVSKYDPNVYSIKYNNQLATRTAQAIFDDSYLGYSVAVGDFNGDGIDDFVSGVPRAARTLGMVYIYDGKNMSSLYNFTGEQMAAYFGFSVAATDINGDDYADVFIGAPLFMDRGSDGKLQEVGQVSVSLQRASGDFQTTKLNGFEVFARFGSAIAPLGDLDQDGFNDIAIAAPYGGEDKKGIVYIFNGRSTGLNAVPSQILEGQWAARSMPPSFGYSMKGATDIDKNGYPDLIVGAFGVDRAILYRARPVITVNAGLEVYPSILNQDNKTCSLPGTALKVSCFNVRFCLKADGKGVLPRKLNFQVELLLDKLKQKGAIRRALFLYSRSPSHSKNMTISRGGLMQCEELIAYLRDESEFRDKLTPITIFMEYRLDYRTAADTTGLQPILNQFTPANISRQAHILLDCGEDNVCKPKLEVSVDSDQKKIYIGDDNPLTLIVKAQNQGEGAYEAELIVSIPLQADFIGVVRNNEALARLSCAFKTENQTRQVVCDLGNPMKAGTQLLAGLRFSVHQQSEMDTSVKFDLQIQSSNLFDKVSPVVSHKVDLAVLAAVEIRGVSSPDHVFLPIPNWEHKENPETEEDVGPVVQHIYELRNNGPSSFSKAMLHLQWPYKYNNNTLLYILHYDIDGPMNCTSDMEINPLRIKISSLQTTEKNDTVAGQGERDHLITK
T1 sequence (P06756 891-1048 partner limits assumed): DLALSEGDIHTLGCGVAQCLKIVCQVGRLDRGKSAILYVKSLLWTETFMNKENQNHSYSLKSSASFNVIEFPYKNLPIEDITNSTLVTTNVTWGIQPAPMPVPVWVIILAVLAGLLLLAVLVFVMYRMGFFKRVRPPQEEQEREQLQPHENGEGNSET
T1 sequence (P18084 24-799): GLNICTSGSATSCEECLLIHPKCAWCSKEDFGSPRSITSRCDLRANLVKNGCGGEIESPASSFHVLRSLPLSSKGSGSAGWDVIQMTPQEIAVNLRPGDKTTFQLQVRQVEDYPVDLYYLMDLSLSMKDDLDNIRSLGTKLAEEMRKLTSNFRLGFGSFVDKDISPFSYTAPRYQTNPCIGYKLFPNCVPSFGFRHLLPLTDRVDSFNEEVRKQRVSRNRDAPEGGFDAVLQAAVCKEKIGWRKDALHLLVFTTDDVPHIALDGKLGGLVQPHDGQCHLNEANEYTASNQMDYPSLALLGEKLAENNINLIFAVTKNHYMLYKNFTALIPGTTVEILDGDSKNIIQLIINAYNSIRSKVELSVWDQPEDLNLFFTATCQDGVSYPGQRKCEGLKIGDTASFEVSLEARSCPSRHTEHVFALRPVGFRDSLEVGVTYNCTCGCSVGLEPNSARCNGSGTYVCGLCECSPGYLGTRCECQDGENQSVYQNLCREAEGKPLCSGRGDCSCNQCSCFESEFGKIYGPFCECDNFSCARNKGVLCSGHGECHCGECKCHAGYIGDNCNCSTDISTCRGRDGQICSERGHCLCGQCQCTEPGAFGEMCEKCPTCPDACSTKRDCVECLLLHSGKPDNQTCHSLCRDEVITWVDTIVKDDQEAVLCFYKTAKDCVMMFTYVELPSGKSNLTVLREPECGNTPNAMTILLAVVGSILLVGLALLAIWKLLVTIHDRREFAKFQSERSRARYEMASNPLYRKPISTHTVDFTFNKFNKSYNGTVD
Experimental: (§1) FIG. 13 Panel A: Synthesis of PIP—GaINAc. Tri-GaINAc-DBCO was conjugated to PIP, a knottin peptide that binds to multiple integrins. Panel B: Degradation of cell surface integrins in HEPG2 cells as determined by live-cell flow cytometry following 44 h of treatment with 100 nM PIP or PIP—GaINAc. Anti-αvβ3, anti-αvβ5 and PIP-Fc fusion construct were used for detection. PIP was genetically fused to the Fc domain of a mouse IgG2a to generate a PIP-Fc fusion construct that measures the surface expression of integrins recognized by PIP. Panel C: Percent proliferation of HEPG2 cells following 44 h of treatment with 50 nM, 100 nM or 200 nM PIP or PIP—GaINAc. Proliferation was quantified by phase confluence over time using IncuCyte. Panel D: Time course of percent proliferation of HEPG2 cells during 44 h of treatment with 200 nM PIP or PIP—GaINAc. Panel E: Percent proliferation of HEPG2 cells for 6 d following wash-out. Cells were treated with 200 nM PIP or PIP—GaINAc on day 0. PIP+ and PIP—GaINAc+ indicate the conditions where cells were washed on day 4 and replaced with fresh medium without treatment. […] P values were determined by unpaired two-tailed t-tests.
(§2) The surface levels of integrins were measured by flow cytometry following treatment in HEPG2 cells. […] Nonetheless, the total surface level of integrins that bind to PIP was determined by utilizing a PIP-Fc fusion for staining of the Fc fragment. […]

[4] = tested on: integrins that bind to PIP; assay: Total surface level of integrins that bind to PIP, PIP-Fc fusion detection, HEPG2 cells; assay type: cell-based; settings: 44 h, 100 nM, flow cytometry
Experimental: as §1, §2

HEPG2 cells = assay: Antiproliferation assay (IncuCyte phase confluence); assay type: cell-based; settings: for cell morphology: 100 nM, live imaging over 5 days following treatment; for antiproliferative phenotype after wash-out: 200 nM on day 0, washed on day 4, followed 6 d
Experimental: FIG. 13 Panel A: Synthesis of PIP—GaINAc. Tri-GaINAc-DBCO was conjugated to PIP, a knottin peptide that binds to multiple integrins. Panel B: Degradation of cell surface integrins in HEPG2 cells as determined by live-cell flow cytometry following 44 h of treatment with 100 nM PIP or PIP—GaINAc. Anti-αvβ3, anti-αvβ5 and PIP-Fc fusion construct were used for detection. PIP was genetically fused to the Fc domain of a mouse IgG2a to generate a PIP-Fc fusion construct that measures the surface expression of integrins recognized by PIP. Panel C: Percent proliferation of HEPG2 cells following 44 h of treatment with 50 nM, 100 nM or 200 nM PIP or PIP—GaINAc. Proliferation was quantified by phase confluence over time using IncuCyte. Panel D: Time course of percent proliferation of HEPG2 cells during 44 h of treatment with 200 nM PIP or PIP—GaINAc. Panel E: Percent proliferation of HEPG2 cells for 6 d following wash-out. Cells were treated with 200 nM PIP or PIP—GaINAc on day 0. PIP+ and PIP—GaINAc+ indicate the conditions where cells were washed on day 4 and replaced with fresh medium without treatment. PIP++ and PIP—GaINAc++ indicate the conditions where cells were washed on day 4 and replaced with fresh medium containing 200 nM PIP or PIP—GaINAc. Panel F: Live HEPG2 imaging by IncuCyte throughout the 5 d after treatment with 100 nM PIP or PIP—GaINAc. Images are representative of three independent experiments for F. Data in B-E represent three independent experiments, where B and C show the mean of three independent experiments ±s.e.m. P values were determined by unpaired two-tailed t-tests.
HEPG2 cells (100,000 cells per well in a 24-well plate) were treated with various concentrations of PIP or PIP—GaINAc. After treatments were added, cells were imaged every 4 h for the indicated times in the IncuCyte S3 Live-Cell Analysis system using the phase-imaging channel and a ×10 objective. For co-incubation experiments with ASF, 10 mg ml^−1 of ASF (Sigma-Aldrich) was treated with either PIP or PIP—GaINAc. The following analysis parameters were used to quantify phase confluence (%) in the Incucyte software: segmentation adjustment was set to 1, hole fill (μm2) was set to 300 and area minimum (μm^2) was set to 150. No other constraints were selected. Percent proliferation was then calculated by normalizing phase confluence values. Specifically, at any given timepoint n in the treatment time course (t=0→t=n), the change in confluence from t=0 to t=n (Δconfluence t=n) was calculated for each well as follows: Δconfluence t=n of well x=(confluence t=n of well x)−(confluence t=0 of well x), where x represents any given well in the experiment. This ensures that the value of each well is set to 0 at t=0. The average Δconfluence at the final time point of the untreated wells was set as the ‘max value’ (equivalent to 100% proliferation). Finally, data were normalized as follows:
% proliferationt=n=n of well x=(Δconfluencet=n of well x)/(max value),
where it is noted that while the metric is labeled as “% proliferation”, the effects quantitated are the summation of both cell proliferation and cell survival.

[5] = tested on: tumor-associated integrins; settings: αvβ3, αvβ5, αvβ6 and α5β1 integrins; cited from earlier work
[6] = molecular target: αvβ3 integrin on HEPG2 cells (UniProt P06756); assay: cell-based or functional assay
Sequence of αvβ3 integrin on HEPG2 cells (P06756 31-1048 limits assumed, chain 1 of 2): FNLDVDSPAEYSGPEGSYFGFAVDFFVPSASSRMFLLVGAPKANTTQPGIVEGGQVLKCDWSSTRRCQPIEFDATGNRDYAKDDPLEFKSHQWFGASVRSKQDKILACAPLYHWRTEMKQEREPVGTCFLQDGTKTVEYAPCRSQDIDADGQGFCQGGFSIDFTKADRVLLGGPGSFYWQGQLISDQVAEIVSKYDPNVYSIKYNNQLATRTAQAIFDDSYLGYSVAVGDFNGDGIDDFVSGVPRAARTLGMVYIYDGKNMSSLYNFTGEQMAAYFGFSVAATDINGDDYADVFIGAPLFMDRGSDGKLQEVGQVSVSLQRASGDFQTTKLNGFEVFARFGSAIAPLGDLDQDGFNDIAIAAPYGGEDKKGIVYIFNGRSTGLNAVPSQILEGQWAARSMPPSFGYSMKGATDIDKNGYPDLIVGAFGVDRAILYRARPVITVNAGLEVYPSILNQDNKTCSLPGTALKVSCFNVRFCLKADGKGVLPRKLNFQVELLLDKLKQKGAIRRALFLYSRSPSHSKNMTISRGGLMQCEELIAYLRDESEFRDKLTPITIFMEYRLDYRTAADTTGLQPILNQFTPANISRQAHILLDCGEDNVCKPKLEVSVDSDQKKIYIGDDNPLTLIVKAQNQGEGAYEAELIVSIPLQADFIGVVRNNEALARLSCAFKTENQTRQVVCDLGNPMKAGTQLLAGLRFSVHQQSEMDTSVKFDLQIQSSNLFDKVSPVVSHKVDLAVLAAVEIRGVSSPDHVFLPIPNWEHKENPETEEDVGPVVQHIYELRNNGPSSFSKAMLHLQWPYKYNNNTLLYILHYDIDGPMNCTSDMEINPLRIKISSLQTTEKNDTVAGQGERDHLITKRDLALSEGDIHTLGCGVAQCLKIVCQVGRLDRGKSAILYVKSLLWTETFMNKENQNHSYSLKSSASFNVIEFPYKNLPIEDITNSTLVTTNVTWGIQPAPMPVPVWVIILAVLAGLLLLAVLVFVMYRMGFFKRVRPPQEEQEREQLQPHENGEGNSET
Sequence of αvβ3 integrin on HEPG2 cells (P05106 27-788 limits assumed, chain 2 of 2, further chain): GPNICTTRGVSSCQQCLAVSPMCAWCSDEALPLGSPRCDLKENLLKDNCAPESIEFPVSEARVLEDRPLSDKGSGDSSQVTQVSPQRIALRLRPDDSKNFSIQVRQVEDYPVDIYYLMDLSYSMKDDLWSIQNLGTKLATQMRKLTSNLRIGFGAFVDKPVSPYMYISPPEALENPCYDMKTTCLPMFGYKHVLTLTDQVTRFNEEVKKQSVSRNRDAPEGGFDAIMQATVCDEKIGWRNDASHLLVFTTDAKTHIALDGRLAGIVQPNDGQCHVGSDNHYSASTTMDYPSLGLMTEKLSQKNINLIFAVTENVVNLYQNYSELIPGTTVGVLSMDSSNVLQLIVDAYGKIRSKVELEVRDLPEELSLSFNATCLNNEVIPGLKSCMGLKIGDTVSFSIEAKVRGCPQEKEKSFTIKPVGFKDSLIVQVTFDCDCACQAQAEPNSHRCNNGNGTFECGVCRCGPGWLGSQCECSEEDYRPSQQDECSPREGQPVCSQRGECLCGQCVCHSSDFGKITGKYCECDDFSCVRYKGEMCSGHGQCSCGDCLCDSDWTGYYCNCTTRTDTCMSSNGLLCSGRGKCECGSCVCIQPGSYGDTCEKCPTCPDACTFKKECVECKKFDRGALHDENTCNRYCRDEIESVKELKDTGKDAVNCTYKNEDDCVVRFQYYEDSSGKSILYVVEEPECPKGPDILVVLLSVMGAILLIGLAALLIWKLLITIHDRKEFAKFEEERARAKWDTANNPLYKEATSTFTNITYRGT

αvβ3 integrin = molecular target: T2, αvβ3 integrin (Homo sapiens, UniProt P05106+P06756); assay: Cell surface integrin levels by live-cell flow cytometry in HEPG2 cells, anti-αvβ3 detection; assay type: cell-based; settings: 44 h, 100 nM
T2 construct: endogenous in cells; host or cells: HEPG2
T2 sequence (P06756 31-889 limits assumed): as the sequence (P06756 31-889 limits assumed) above
T2 sequence (P06756 891-1048 partner limits assumed): as the sequence (P06756 891-1048 partner limits assumed) above
T2 sequence (P05106 27-788): as the sequence (P05106 27-788 limits assumed, chain 2 of 2, further chain) above
Experimental: as §1, §2

Compound	depletion of total surface integrins that bind to PIP on HEPG2 cells, detected by PIP-Fc staining (flow cytometry) [1] [%]	relative binding affinity for the CIM6PR [2]	effect on surface expression of integrin αvβ5 (integrin αvβ5)	integrins depleted (detection of PIP-Fc) [4]	cell morphology (HEPG2 cells)	antiproliferative phenotype after wash-out (HEPG2 cells)	other results
polyspecific integrin-binding knottin peptide (PIP), synthesized with 5-azido-L-norvaline at position 15 and tyrosine at position 31	40	–	–	–	–	–	–
C=CC(=O)OC[C@@H](O)[C@@H](O)[C@H](O)[C@H](O)C=O [mannose-6-acrylate glycans, mannose-6-acrylate]	–	0.7	–	–	–	–	serum stability [3]: better serum stability
mannose-6-carboxylate [mannose-6-carboxylate glycans]	–	0.3	–	–	–	–	–
PIP: polyspecific integrin-binding knottin peptide, 33-mer (SEQ ID NO:42); 5-azido-L-norvaline at position 15, tyrosine at position 31 (GCPRPRGDNPPLTC[Orn(N3)]QDSDCLAGCVCGPNGYCG; disulfide (positions not given here); not fully specified (bridges); also: further groups not given here)	–	–	increased the expression	40%	epithelial-like clusters	wash-out rescued proliferation	binding affinity to tumor-associated integrins [5]: high affinity
PIP-GalNAc (PIP conjugated to a single tri-GalNAc-DBCO moiety) (peptide)	60	–	–	–	–	–	cell surface αvβ3 integrin level on HEPG2 cells, live-cell flow cytometry after 44 h of treatment with 100 nM [6]: 3 fold
PIP—GaINAc: PIP knottin with azido-norvaline site-specifically conjugated via a single tri-GaINAc-DBCO moiety (GCPRPRGDNPPLTC[Orn(N3)′](tri‑GalNAc‑DBCO)QDSDCLAGCVCGPNGYCG; disulfide (positions not given here); not fully specified (bridges); reading uncertain; also: further groups not given here)	–	–	modest degradation	about 60%	formed smaller, circular clusters	persisted after conjugate wash-out	depletion of cell surface αvβ3 integrin levels relative to PIP treatment alone (αvβ3 integrin): threefold; antiproliferative effect on co-incubation with asialofetuin (ASF), inhibitor of ASGPR (HEPG2 cells; 10 mg ml^−1 ASF): ablated the enhanced antiproliferative effect; inhibition of proliferation (HEPG2 cells; various concentrations (50, 100, 200 nM) and durations of treatment up to 44 h): substantially more effective at inhibiting proliferation than PIP
